Laboratory results reported in patent US5580895A, “1,5-benzodiazepine derivatives” (Glaxo SpA, priority 1992, dated 1996).

How the values were obtained:
CCK-A receptor [1] = test: CCK receptor binding, CCK-A (Pancreas Assay)
Experimental: (§1) The greater affinity of the compounds of the invention for the CCK-B receptor over the CCK-A receptor has also been established using the CCK receptor binding assays described by G. Dal Fornos et al., J. Pharmcol. Exp & Ther. 261, 1056-1063, 1992.
(§2) The binding affinity of the compounds of the invention for the CCK-A receptor (Pancreas Assay) and CCK-B receptor (guinea pig cortex assay) was determined using the procedure of G Dal Forno et al J. Pharmacol. Exp & Ther. 261-1056-1063. The pKi values determined with representative compounds of invention were as follows: […]

CCK-A receptor [2] = biological target: T1, CCK-A receptor (Cavia porcellus, UniProt Q63931); test: CCK-A antagonist activity, guinea pig isolated ileum longitudinal muscle myenteric plexus (inhibition of contractile activity of CCK-8); format: cell-based
T1 construct: guinea pig isolated ileum longitudinal muscle myenteric plexus preparation; from tissue; host or cells: guinea pig isolated ileum longitudinal muscle-myenteric plexus
T1 sequence (Q63931 1-430): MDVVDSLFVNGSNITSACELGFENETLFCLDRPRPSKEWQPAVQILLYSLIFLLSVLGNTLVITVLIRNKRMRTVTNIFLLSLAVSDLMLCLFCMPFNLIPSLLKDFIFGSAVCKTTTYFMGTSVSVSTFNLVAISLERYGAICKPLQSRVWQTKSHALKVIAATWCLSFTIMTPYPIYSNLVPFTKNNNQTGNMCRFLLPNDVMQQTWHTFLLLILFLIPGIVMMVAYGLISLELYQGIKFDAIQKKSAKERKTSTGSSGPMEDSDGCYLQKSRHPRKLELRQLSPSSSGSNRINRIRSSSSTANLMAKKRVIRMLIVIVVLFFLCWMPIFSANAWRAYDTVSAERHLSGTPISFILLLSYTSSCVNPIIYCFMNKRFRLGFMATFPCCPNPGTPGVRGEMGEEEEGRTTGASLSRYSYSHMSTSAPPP
Experimental: The preparation and use of guinea-pig isolated ileum longitudinal muscle-myenteric plexus has been described by K-H Buchheit et al in Nauyn-Schmeideberg's Arch. Pharmacol, (1985), 329, p36-41 and by V. L. Lucaites et al (1991) in J. Pharmacol. Exp. Ther., 256, 695-703.
The CCK-A antagonist and CCK-B antagonist activities of compounds of the invention were determined using the guinea pig isolated ileum longitudinal muscle myenteric plexus preparation. The compounds were tested using the procedure G Dal
Forno et al J. Pharmacol. Exp & Ther. 261-1056-1063 1992 and the pKb value for each compound was determined.

mice and rats [3] = test: Anxiolytic activity, oral, mice and rats; format: in vivo; conditions: orally to mice and rats
Description: (§3) The compounds of the invention are essentially non-toxic and therapeutically useful doses.

mice and rats [4] = test: Toxicity / untoward effects on oral administration to mice and rats; format: in vivo; conditions: orally to mice and rats at doses exhibiting anxiolytic activity
Description: as §3

CCK-B receptor = biological target: T2, CCK-B receptor (Cavia porcellus, UniProt H0VZC5); test: CCK receptor binding, CCK-B (guinea pig cortex assay)
T2 construct: CCK-B receptor (guinea pig cortex assay); from tissue; host or cells: guinea pig cortex
Experimental: as §1, §2

T2 sequence (H0VZC5 entry or part of it): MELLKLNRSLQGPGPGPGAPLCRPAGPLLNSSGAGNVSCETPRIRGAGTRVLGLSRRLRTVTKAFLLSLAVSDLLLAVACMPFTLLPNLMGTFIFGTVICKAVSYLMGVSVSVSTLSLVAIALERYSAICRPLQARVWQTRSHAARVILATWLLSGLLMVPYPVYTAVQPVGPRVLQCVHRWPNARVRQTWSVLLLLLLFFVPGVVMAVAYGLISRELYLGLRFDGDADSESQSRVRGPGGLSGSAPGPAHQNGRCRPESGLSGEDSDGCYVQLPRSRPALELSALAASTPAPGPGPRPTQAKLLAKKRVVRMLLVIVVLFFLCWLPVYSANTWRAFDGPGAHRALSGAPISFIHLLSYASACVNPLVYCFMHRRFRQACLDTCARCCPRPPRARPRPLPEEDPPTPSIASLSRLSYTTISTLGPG

SMILES	pKi CCK-A (CCK-A receptor [1])	also measured
O=C(Nc1cccc([N+](=O)[O-])c1)NC1C(=O)N(CC23CC4CC(CC(C4)C2)C3)c2ccccc2N(c2ccccc2)C1=O (centres unmarked) [Example 39, N-[1-(1-Adamantylmethyl)-2,4-dioxo-5-phenyl-2,3,4,5-tetrahydro-1H-1,5-benzodiazepin-3-yl]-N'-(3-nitrophenyl)urea]	6.52	–
CC(C)CCN1C(=O)C(NC(=O)Nc2ccccc2)C(=O)N(c2ccccc2)c2ccccc21 (centres unmarked) [Example 25, N-[2,4-Dioxo-5-phenyl-1-(3-methylbut-1-yl)-2,3,4,5-tetrahydro-1H-1,5-benzodiazepin-3-yl]-N'-phenylurea]	–	pKb CCK-A (CCK-A receptor [2]): < 6.0
CN(C)c1ccc(NC(=O)NC2C(=O)N(CCC3CCCC3)c3ccccc3N(c3ccccc3F)C2=O)cc1 (centres unmarked) [Example 30, N-[1-(2-cyclopentyl-ethyl)-2,4-dioxo-5-(2-fluorophenyl)-2,3,4,5-tetrahydro-1H-1,5-benzodiazepin-3-yl]-N'-[4-(dimethylamino)phenyl]urea]	7.00	–
O=C(Nc1ccccc1)NC1C(=O)N(CC23CC4CC(CC(C4)C2)C3)c2ccccc2N(c2ccccc2)C1=O (single isomer, unassigned; (+)) [Example 45, (+)-N-[1-(Adamantanmethyl)-2,4-dioxo-5-phenyl-2,3,4,5-tetrahydro-1H-1,5-benzodiazepin-3-yl]-N'-phenylurea]	5.95	anxiolytic activity (mice and rats [3]): exhibits anxiolytic activity; untoward effects (mice and rats [4]): no untoward effects were observed
O=C(Nc1ccccc1)NC1C(=O)N(CC2CC3C=CC2C3)c2ccccc2N(c2ccccc2)C1=O (centres unmarked) [Example 31, N-[1-(Bicyclo[2.2.1]-5-heptene-2-ylmethyl)-2,4-dioxo-5-phenyl-2,3,4,5-tetrahydro-1H-1,5-benzodiazepin-3-yl]-N'-phenylurea]	6.76	–
CC(C)CCN1C(=O)C(NC(=O)Nc2ccccc2)C(=O)N(c2ccccc2)c2cc(Cl)ccc21 (centres unmarked) [Example 9, N-[7-Chloro-2,4-dioxo-1-(3-methylbut-1-yl)-5-phenyl-2,3,4,5-tetrahydro-1H-1,5-benzodiazepin-3-yl]-N'-phenylurea]	6.02	–
CC(C)(C)C(O)CN1C(=O)C(NC(=O)Nc2ccccc2)C(=O)N(c2ccccc2F)c2ccccc21 (centres unmarked) [Example 7A, N-[1-(3,3-Dimethyl-2-hydroxybut-1-yl)-2,4-dioxo-5-(2-fluorophenyl)-2,3,4,5-tetrahydro-1H-1,5-benzodiazepin-3-yl]-N'-phenylurea]	6.33	–
CC(C)CCN1C(=O)C(NC(=O)Nc2ccccc2)C(=O)N(c2ccccc2)c2ccccc21 (single isomer, unassigned; (+)) [Example 26, (+)-N-[2,4-Dioxo-5-phenyl-1-(3-methylbut-1-yl)-2,3,4,5-tetrahydro-1H-1,5-benzodiazepin-3-yl]-N'-phenylurea]	–	Kb (CCK-A receptor [2]; read-out: pKb CCK-A (converted)): ≥ 3160 nM
CC(C)CCN1C(=O)C(NC(=O)Nc2cccc(N(C)C)c2)C(=O)N(c2ccccc2F)c2ccccc21 (centres unmarked) [Example 4, N-[2,4-dioxo-5-(2-fluorophenyl)-1-(3-methylbut-1-yl)-2,3,4,5-tetrahydro-1H-1,5-benzodiazepin-3-yl]-N'-(3-dimethylamino)phenylurea]	6.9	–
CC(C)(C)CCN1C(=O)C(NC(=O)Nc2ccccc2)C(=O)N(c2ccccc2)c2ccccc21 (centres unmarked) [Example 16, N-[1-(3,3-Dimethylbutyl)-2,4-dioxo-5-phenyl-2,3,4,5-tetrahydro-1H-1,5-benzodiazepin-3-yl]-N'-phenylurea]	6.95	–
O=C(Nc1ccccc1)NC1C(=O)N(CC23CC4CC(CC(C4)C2)C3)c2ccccc2N(c2ccccc2)C1=O (centres unmarked) [Example 14, N-[1-(1-Adamantyl)methyl-2,4-dioxo-5-phenyl-2,3,4,5-tetrahydro-1H-1,5-benzodiazepin-3-yl]-N'-phenylurea]	6.15	–
CC(C)CCN1C(=O)C(NC(=O)Nc2ccccc2)C(=O)N(c2ccccc2)c2cc(Cl)c(Cl)cc21 (centres unmarked) [Example 11, N-[7,8-dichloro-2,4-Dioxo-1-(3-methylbut-1-yl)-5-phenyl-2,3,4,5-tetrahydro-1H-1,5-benzodiazepin-3-yl]-N'-phenylurea]	5.80	–
CCOC(=O)c1cccc(NC(=O)NC2C(=O)N(CC34CC5CC(CC(C5)C3)C4)c3ccccc3N(c3ccccc3)C2=O)c1 (centres unmarked) [Example 41, N-[1-(1-Adamantylmethyl)-2,4-dioxo-5-phenyl-2,3,4,5-tetrahydro-1H-1,5-benzodiazepin-3-yl]-N'-(3-ethoxycarbonylphenyl)urea]	6.09	–
CC(C)CCN1C(=O)C(NC(=O)Nc2cccc(N(C)C)c2)C(=O)N(c2ccccc2F)c2ccccc21 (single isomer, unassigned; (+)) [Example 27, (+)-N-[2,4-Dioxo-5-(2-fluorophenyl)-1-(3-methylbut-1-yl)-2,3,4,5-tetrahydro-1H-1,5-benzodiazepin-3-yl]-N'-[3-(N,N-dimethylamino)phenyl]urea]	6.83	Ki (CCK-B receptor): 0.288 nM
